# Results taken from ChEMBL document CHEMBL5543084, “Development of cannabidiol derivatives as potent broad-spectrum antibacterial agents with membrane-disruptive mechanism” (Eur J Med Chem, 2024).
# Columns and labels:
# Staphylococcus aureus [1] = assay: Antibacterial activity against Staphylococcus aureus ATCC 29213 assessed as inhibition of bacterial growth incubated for 24 hrs by broth dilution method; format: functional
# Staphylococcus aureus [2] = assay: Antibacterial activity against methicillin-resistant Staphylococcus aureus N315 assessed as inhibition of bacterial growth incubated for 24 hrs by broth dilution method; format: functional
# Staphylococcus aureus [3] = assay: Antibacterial activity against methicillin-resistant Staphylococcus aureus NCTC 10442 assessed as inhibition of bacterial growth incubated for 24 hrs by broth dilution method; format: functional
# Escherichia coli = assay: Antibacterial activity against Escherichia coli ATCC 25922 assessed as inhibition of bacterial growth incubated for 24 hrs by broth dilution method; format: functional
# Acinetobacter baumannii [4] = assay: Antibacterial activity against Acinetobacter baumannii ATCC 17978 assessed as inhibition of bacterial growth incubated for 24 hrs by broth dilution method; format: functional
# Acinetobacter baumannii [5] = assay: Antibacterial activity against Acinetobacter baumannii R2889 assessed as inhibition of bacterial growth incubated for 24 hrs by broth dilution method; format: functional
# Klebsiella pneumoniae [6] = assay: Antibacterial activity against Klebsiella pneumoniae ATCC 14581 assessed as inhibition of bacterial growth incubated for 24 hrs by broth dilution method; format: functional
# Klebsiella pneumoniae [7] = assay: Antibacterial activity against Klebsiella pneumoniae ATCC 10031 assessed as inhibition of bacterial growth incubated for 24 hrs by broth dilution method; format: functional
# Pseudomonas aeruginosa = assay: Antibacterial activity against Pseudomonas aeruginosa ATCC 9027 assessed as inhibition of bacterial growth incubated for 24 hrs by broth dilution method; format: functional
# [8] = Hemolytic activity against rabbit blood cells incubated for 1 hr relative to control; format: toxicity, cell-based, Oryctolagus cuniculus, Erythrocyte; conditions: rabbit blood cells (erythrocytes)
SMILES,MIC (Staphylococcus aureus [1]) [µg/mL],MIC (Staphylococcus aureus [2]) [µg/mL],MIC (Staphylococcus aureus [3]) [µg/mL],MIC (Escherichia coli) [µg/mL],MIC (Acinetobacter baumannii [4]) [µg/mL],MIC (Acinetobacter baumannii [5]) [µg/mL],MIC (Klebsiella pneumoniae [6]) [µg/mL],MIC (Klebsiella pneumoniae [7]) [µg/mL],MIC (Pseudomonas aeruginosa) [µg/mL],HC50 at 1 h [8] [µg/mL]
C=C(C)[C@@H]1CCC(C)=C[C@H]1c1c(OCC(=O)O)cc(CCCCC)cc1OCC(=O)O,> 50,> 50,> 50,> 50,> 50,> 50,> 50,> 50,> 50,> 200
C=C(C)[C@@H]1CCC(C)=C[C@H]1c1c(OCCCCN(C)C)cc(CCCCC)cc1OCCCCN(C)C,3.12,3.12,6.25,6.25,6.25,6.25,6.25,6.25,50,132
C=C(C)[C@@H]1CCC(C)=C[C@H]1c1c(OCCCCCN)cc(CCCCC)cc1OCCCCCN,3.12,3.12,1.56,6.25,6.25,12.5,6.25,6.25,> 50,65.9
C=C(C)[C@@H]1CCC(C)=C[C@H]1c1c(OCCCCCNC(=N)N)cc(CCCCC)cc1OCCCCCNC(=N)N,3.12,1.56,0.78,3.12,3.12,3.12,3.12,1.56,25,60.5
C=C(C)[C@@H]1CCC(C)=C[C@H]1c1c(OCCCCI)cc(CCCCC)cc1OCCCCI,> 50,> 50,> 50,> 100,> 50,> 50,> 50,> 50,> 50,> 200
C=C(C)[C@@H]1CCC(C)=C[C@H]1c1c(OCCCCNC(=N)N)cc(CCCCC)cc1OCCCCNC(=N)N,0.78,0.39,0.78,0.78,1.56,0.78,0.78,1.56,6.25,98.4
C=C(C)[C@@H]1CCC(C)=C[C@H]1c1c(OCC(=O)N[C@@H](CCCNC(=N)N)C(=O)OC)cc(CCCCC)cc1OCC(=O)N[C@@H](CCCNC(=N)N)C(=O)OC,1.56,1.56,0.78,6.25,12.5,25,25,25,50,> 200
CN[C@H](CC(C)C)C(=O)N[C@H]1C(=O)N[C@@H](CC(N)=O)C(=O)N[C@H]2C(=O)N[C@H]3C(=O)N[C@H](C(=O)N[C@H](C(=O)O)c4cc(O)cc(O)c4-c4cc3ccc4O)[C@H](O)c3ccc(c(Cl)c3)Oc3cc2cc(c3O[C@@H]2O[C@H](CO)[C@@H](O)[C@H](O)[C@H]2O[C@H]2C[C@](C)(N)[C@H](O)[C@H](C)O2)Oc2ccc(cc2Cl)[C@H]1O [VANCOMYCIN],0.78,1.56,1.56,> 50,–,–,–,–,–,> 200
C=C(C)[C@@H]1CCC(C)=C[C@H]1c1c(OCCCCNCCC)cc(CCCCC)cc1OCCCCNCCC,3.12,3.12,1.56,25,12.5,12.5,25,12.5,> 50,79.3
C=C(C)[C@@H]1CCC(C)=C[C@H]1c1c(OCC(=O)OCC)cc(CCCCC)cc1OCC(=O)OCC,> 50,> 50,> 50,> 100,> 50,> 50,> 50,> 50,> 50,> 200
C=C(C)[C@@H]1CCC(C)=C[C@H]1c1c(OCCCCCCBr)cc(CCCCC)cc1OCCCCCCBr,> 50,> 50,> 50,> 100,> 50,> 50,> 50,> 50,> 50,> 200
C=C(C)[C@@H]1CCC(C)=C[C@H]1c1c(O)cc(CCCCC)cc1O [CANNABIDIOL],3.12,1.56,3.12,> 100,> 50,> 50,> 50,> 50,> 50,> 200
C=C(C)[C@@H]1CCC(C)=C[C@H]1c1c(OCCCCCBr)cc(CCCCC)cc1OCCCCCBr,> 50,> 50,> 50,> 50,> 50,> 50,> 50,> 50,> 50,> 200
